How the values were obtained:
Test in all cases: Viability/apoptosis flow cytometry assay, DLBCL cell lines with acquired resistance to doxorubicin and parental lines
Assay type in all cases: cell-based
WSU-DLCL2 Parental = test system: WSU-DLCL2 Parental
Experimental: (§1) The following exemplary anti-proliferative assay uses exemplary DLBCL cell lines with acquired resistance to doxorubicin (Table 7). The in vitro growth inhibitory activity of Compound described herein was evaluated using a 384-well flow cytometry assay. The activity of Compound 1 was also evaluated in cell lines with acquired resistance to doxorubicin (one of the curative agents in the DLBCL standard of care regimen R-CHOP [rituximab, cyclophosphamide, doxorubicin, vincristine, and prednisone]) (Table 7).
(§2) The cell lines in Table 7 were plated in 96-well flat bottom plates and assessed with increasing concentrations of compound ranging from 0.0015 to 10 μM or dimethyl sulfoxide (DMSO) control. The final concentration of DMSO was 0.1% (v/v). Following the addition of Compound 1 or DMSO and incubation for 120 hours, cell number and cell death were analyzed by flow cytometry (Attune®, Thermo Fisher) using Annexin V and the vital dye, 7-AAD. Phosphatidylserine translocates from the inner layer to the outer layer of the cell membrane early in apoptosis and Annexin V binds to the exposed phosphatidylserine found on the surface of an apoptotic cell. The dye 7-AAD is excluded by intact live cells and only stains cells that have died as a result of apoptosis or necrosis.
(§3) Flow cytometry data analysis was then performed using the Flow Jo_v10 software to determine the number of viable cells (Annexin V and 7-AAD double negative staining cells) and percentage of apoptotic cells (Annexin V positive cells) for each condition. The live cell count for every concentration was normalized to the DMSO control (considered as 100%) to calculate the percentage of viable cells remaining after treatment and graphed using GraphPad Prism 7.03. The IC50 (50% inhibitory concentration) and Emax (maximum efficacy eliminating tumor cells achieved) values were then calculated by performing nonlinear regression curve fitting using log(inhibitor) vs. normalized response—variable slope analysis on GraphPad Prism 7.03. Area under the curve (AUC) was calculated by performing area under curve analysis on GraphPad Prism 7.03. Similarly, for apoptosis analysis, the percentage of apoptosis combining both “early” (Annexin V positive and 7-AAD negative) and “late” apoptosis (Annexin V and 7-AAD positive) cell gates relative to DMSO was graphed using GraphPad Prism 7.03. The AUC, EC50 (concentration of Compound 1 that produces half-maximal apoptosis response) and Ymax (maximal percentage of apoptosis achieved) values from apoptosis curves were calculated by performing area under curve analysis and nonlinear regression curve fitting using log(agonist) vs. normalized response—Variable slope analysis on GraphPad Prism 7.03.
(§4) In Table 8, dose-response proliferation curves for the cell lines with acquired resistance to doxorubicin and non-linear curve-fit regression were used to determine IC50, AUC, and Emax for % viable cells (Emax for viability varies between 100 at low doses and 0 at high doses, which corresponds to inhibition of all viable cells), and dose-response apoptosis curves were used to determine the EC50, AUC, and Ymax for % apoptosis (Ymax for apoptosis varies from 0 at low doses and 100 at higher doses which corresponds to death of all cells). Tumor cells were exposed to serial dilutions (0.00015 to 10 μM) of Compound 1 or dimethyl sulfoxide (DMSO) control for 5 days. Viability and apoptosis for all cell lines was determined by Annexin V/7-aminoactinomycin D (7-AAD) flow cytometry.

SUDHL4 Parental = test system: SUDHL4 Parental
Experimental: as §1, §2, §3, §4

U2932 DoxoR = conditions: 120 hours
Experimental: as §1, §2, §3, §4

Oci-Ly10 DoxoR = conditions: 120 hours
Experimental: as §1, §2, §3, §4

[1] = Homo sapiens, read-out: IC50 (% Viable Cells)

SMILES: O=C1CC[C@H](N2C(=O)c3cccc(NCc4ccc(CN5CC(N6CCOCC6)C5)cc4F)c3C2=O)C(=O)N1 [Compound 1, (S)-2-(2,6-dioxopiperidin-3-yl)-4-((2-fluoro-4-((3-morpholinoazetidin-1-yl)methyl)benzyl)amino)isoindoline-1,3-dione]
- AUC (% Viable Cells) (WSU-DLCL2 Parental; 120 hours): 166.7
- AUC (Apoptosis) (WSU-DLCL2 Parental; 120 hours): 51
- Emax (% Viable Cells) (WSU-DLCL2 Parental; 120 hours): 28%
- Ymax (Apoptosis) (WSU-DLCL2 Parental; 120 hours): 29.5%
- EC50 (WSU-DLCL2 Parental; Homo sapiens, WSUDLCL2, 120 hours): 320 nM
- IC50 (WSU-DLCL2 Parental; Homo sapiens, WSUDLCL2, 120 hours, read-out: IC50 (% Viable Cells)): 10 nM
- AUC (% Viable Cells) (SUDHL4 Parental; 120 hours): 335
- AUC (Apoptosis) (SUDHL4 Parental; 120 hours): 6
- Emax (% Viable Cells) (SUDHL4 Parental; 120 hours): 75%
- Ymax (Apoptosis) (SUDHL4 Parental; 120 hours): 3.7%
- EC50 (SUDHL4 Parental; Homo sapiens, SU-DHL-4, 120 hours): 200 nM
- AUC (% Viable Cells) (U2932 DoxoR): 256
- AUC (Apoptosis) (U2932 DoxoR): 15.7
- Emax (% Viable Cells) (U2932 DoxoR): 27.7%
- Ymax (Apoptosis) (U2932 DoxoR): 16%
- EC50 (U2932 DoxoR; Homo sapiens): 1120 nM
- IC50 (U2932 DoxoR; [1]): 250 nM
- AUC (% Viable Cells) (Oci-Ly10 DoxoR): 211.8
- AUC (Apoptosis) (Oci-Ly10 DoxoR): 27
- Emax (% Viable Cells) (Oci-Ly10 DoxoR): 25%
- Ymax (Apoptosis) (Oci-Ly10 DoxoR): 19.48%
- EC50 (Oci-Ly10 DoxoR; Homo sapiens): 640 nM
- IC50 (Oci-Ly10 DoxoR; [1]): 90 nM
